Tests used:
HCT 15-derived tumors = test: HCT 15 tumor xenografts in athymic mice; format: in vivo
Description: HCT 15-derived tumors were generated as described above. Animals were then treated with pyrrolidinedithiocarbamate, in the presence or absence of 5-FU, for 3 weeks. At this point, treatments were discontinued in animals receiving the combined treatment of pyrrolidinedithiocarbamate and 5-FU for 2 months. All other treatment groups received both 5-FU and pyrrolidinedithiocarbamate for the remaining 3 weeks.
(§5) Male athymic Balb/c nu/nu mice were obtained from the Harlan Sprague-Dawley Company at 4–6 weeks of age and were quarantined for at least 2 weeks before the study. […] HCT 116 and HCT 15 CRC cell lines were grown in DMEM supplemented with 10% FBS as described above. Cells were harvested through two consecutive trypsinizations, centrifuged at 300 g for 5 minutes, washed twice, and resuspended in sterile phosphate buffered saline. One ×10^6 cells in 0.2 ml were injected subcutaneously between the scapula of 7- to 10-week-old male nude mice.
(§6) Tumor volumes were estimated weekly by measuring the maximal length, width, and height. Once tumors reached a mean size of 120 to 150 mm^3, animals received either weekly i.p. injections of pyrrolidinedithiocarbamate (70 μM) or vitamin E (3 mM), 5-FU (40 mg/kg) or saline, or a combination of pyrrolidinedithiocarbamate or vitamin E and 5-FU or 6 weeks. In cross-over experiments, animals received the above treatments for three weeks (with the exception of vitamin E), and then were crossed-over to either the combination treatment of pyrrolidinedithiocarbamate and 5-FU (saline, pyrrolidinedithiocarbamate or 5-FU alone) or discontinued treatment pyrrolidinedithiocarbamate and 5-FU) for the remaining three weeks of the experiment. […] Tumor volumes were recorded weekly until termination of the study.
Tumor tissues were fixed overnight in 4% (v/v) paraformaldehyde and embedded in paraffin according to standard histological procedures. […] The proliferative index (BrDU) and the apoptotic index (TUNEL) were estimated by the percentage of cells scored under a microscope at 200-fold magnification.

[1] = test system: advanced, frequently mutant p53-containing colorectal cancer tumors; settings: patients with advanced; cited from earlier work
[2] = test system: HCT 116 CRC tumor xenografts; test: HCT 116 tumor xenografts in athymic mice; format: in vivo; settings: for tumor volume compared to saline-treated controls: single agents, 6 weeks
Description: HCT 116 CRC cells were injected subcutaneously between the scapula of nu/nu mice. Once tumors reached approximately 150 mm^3, the animals either received weekly i.p. injections of pyrrolidinedithiocarbamate (70 μM) or vitamin E (3 MM), 5-FU (40 mg/kg) or saline, or both an antioxidant and 5-FU. Tumor volume was calculated weekly.
as §5, §6
Tumor tissues were fixed overnight in 4% (v/v) paraformaldehyde and embedded in paraffin according to standard histological procedures. […] TdT labeling of fragmented DNA (TUNEL) was performed as described. The proliferative index (BrDU) and the apoptotic index (TUNEL) were estimated by the percentage of cells scored under a microscope at 200-fold magnification.

HCT 15 cells [3] = test: Apoptotic index (TUNEL) with or without induced C/EBPβ overexpression; format: cell-based, human; settings: 5-FU 1.5 μM or doxorubicin 0.1 μM, 24 hours
Description: Control HCT 15 cells and the sense C/EBPβ cell line were induced with 10 μM muristerone A and exposed to either 5-FU (1.5 μM) or doxorubicin (0.1 μM) for 24 hours. The apoptotic index was calculated as described in FIG. 4C.
Finally, the functional role of C/EBPβ was examined in the apoptotic signaling pathway by generating lines of HCT 15 cells that were stably transfected with the human C/EBPβ cDNA, in both the sense and antisense orientation, under the control of an ecdysone inducible promoter. To avoid the possibility that constitutively expressed C/EBPβ might induce cell death, and ecdysone (muristerone A)-inducible expression system (Invitrogen, Carlsbad, Calif.) was used. Human C/EBPβ cDNA was subcloned into pIND at convenient enzyme cleavage ites. Constructs, containing sense and antisense C/EBPβ sequences were verified by double-stranded DNA sequencing. Before transfection, pIND-C/EBPβ constructs were linearized with Pme I and purified. HCT 15 cells were transfected with 5 μg of pVgRXR (Invitrogen) and 10 μg of pIND-C/EBPβ using CELLFECTIN according to manufacture's instructions. After 24 hours, cells were shifted to medium supplemented with 1 mg/ml Geneticin and […] puromycin (GIBCO BRL) to select for transfectant clones. After 2 weeks, antibiotic-resistant cells were subcloned by limiting dilution. The expression of C/EBPβ protein and the subsequent induction of p21^WAF1/CIP1 was determined following induction with 10 μM muristerone A for 24 hours and Western blot analysis.

CRC cell = CRC cell plating efficiency; format: cell-based, human; settings: 25–200 μM (pyrrolidinedithiocarbamate) and 0.1–10 mM (vitamin E), preliminary studies
endogenous H2O2 = test: Intracellular H2O2 levels by flow cytometry with dihydrorhodamine; format: cell-based, human; settings: up to 24 hours
Description: FIG. 1C is a bar graph of the hours after test compound treatment versus intracellular H2O2 levels. FIG. 1C illustrates the negative association between intracellular redox status and cell cycle perturbations. Changes in the intracellular redox status were determined by the measurement of endogenous H2O2 levels. Background fluorescence was subtracted from each reading. Values are expressed as corrected DHR mean per 10^4 cells±s.e.m. The percentage of G1 (circle) or apoptotic (TUNEL-positive: square) cells by flow cytometric analysis.
HCT 15 cells were incubated with pyrrolidinedithiocarbamate (70 μM), vitamin E (3 mM), N-acetylcysteine (50 μM) or vitamin C (200 μM) for 24 hours. Endogenous H2O2 levels and cell cycle changes were measured as described in FIG. 1C. […] Values from cells transfected with the empty plasmid were subtracted from those obtained from the catalase-containing cells and were expressed as mean±s.e.m. from duplicate dishes.
Intracellular H2O2 levels were analyzed by flow cytometry using […] (DHR) as a specific fluorescent dye probe [G. Rothe, A. Emmendorffer, A. Oser, J. Roesler, G. Valet, J Immun. […] Cellular rhodamine 123 fluorescence intensity of 1×10^4 cells was measured for each sample using a Becton-Dickenson FACS Vantage flow cytometer with the excitation source at 488 nm and emission wave length of 580 nm. […]

HCT 15 CRC cells = test: Flow cytometric cell cycle analysis (propidium iodide); format: cell-based, human; settings: HCT 15, pyrrolidinedithiocarbamate 70 μM or vitamin E 3 mM, 24 hours
Description: (§1) FIG. 1B is a series of flow cytometric analyses that indicate that antioxidants induce G1 cell cycle arrest and apoptosis in CRC cells. […] Twenty-four hours following antioxidant exposure, cells were harvested and flow cytometric analysis performed.
(§2) DNA Content of nuclei was determined as described [I. G. Nicoletti et al., J Immunol. Methods. 139, 271 (1991)] by lysing plasma membranes, staining nuclear DNA with propidium iodide ([…]), and quantitating the relative DNA content of nuclei using the Becton Dickinson FACSORT fluorescence-activated cell sorter. The proportion of nuclei in each phase of the cell cycle was determined using MODFIT-DNA analysis software. Detection of apoptotic cells either by fluorescence microscopy or by flow cytometry was performed using the ApopTag Plus In Situ Apoptosis Detection Kit (Oncor, Gaithersburg, Md.) as described in the manufacturer's protocol. Briefly, gigoxygenin-labeled nucleotides were added to free 3′OH groups of DNA produced by DNA fragmentation during apoptosis by terminal deoxynucleotidyl transferase (TdT). Digoxygenin was detected by a FTC-conjugated anti-digoxygenin antibody. Analysis was carried out using the fluorescence-activated cell sorter and FITC staining visualized using a fluorescence microscope (Zeiss). […]

HCT 116 CRC cells = test: as above; format: cell-based, human; settings: HCT 116, pyrrolidinedithiocarbamate 70 μM or vitamin E 3 mM, 24 hours
Description: as §1, §2

HCT 15 cells [4] = test: Soft-agar colony formation (anchorage-independent growth)
Description: (§3) FIG. 1A is a graph of the concentration of PDTC versus soft-agar forming units×10^6 HCT 15 and HCT 116 cells (as a percent of control). […] Soft-agar colony formation was measured by seeding HCT 116 or HCT 15 cells in soft agar supplemented with either medium alone (control), or increasing concentrations of pyrrolidinedithiocarbamate (25–200 μM) or vitamin E (0.1–10 mM). Colonies were scored at the end of 10 days incubation at 37° C. Values are representative of three experiments carried out in quadruplicate.
(§4) HCT 116 and HCT 15 cells were seeded in soft agar as described above containing increasing concentrations of either 5-FU (5×10^−8 to 5×10^−5 M) or doxorubicin (1×10^−9 to 1×10^−6 M), in the presence or absence of pyrrolidinedithiocarbamate (70 μM) or vitamin E (3 mM). Colonies were scored after 10 days and IC50 values were calculated as the concentration of 5-FU or doxorubicin required to reduce basal colony formation by 50% (±s.e.m.). Values are representative of three experiments carried out in quadruplicate.

HCT 116 cells = test: as above
Description: as §3, §4

[5] = HCT 116 xenografts, weekly i.p. injections

SMILES | tumor size (HCT 15-derived tumors; HCT 15-derived tumors, after 3 weeks of single agent treatment, before cross-over) | success rate [1] | tumor volume compared to saline-treated controls [2, 5] | apoptotic index (HCT 15 cells [3]; HCT 15 cells induced to overexpress C/EBPβ) [%] | apoptotic index (HCT 15 cells [3]; HCT 15 cells, absence of C/EBPβ overexpression) [%] | CRC cell plating efficiency (CRC cell) | endogenous H2O2 levels (endogenous H2O2; HCT 15 cells, N-acetylcysteine 50 μM, vitamin C 200 μM) | endogenous H2O2 levels (endogenous H2O2; HCT 116 cells) | increase of apoptotic index (TUNEL) of residual tumors (HCT 15-derived tumors; HCT 15 xenograft model) | accumulation of cells in the G1 peak (HCT 15 CRC cells) | accumulation of cells in the G1 peak (HCT 116 CRC cells) | effect on the IC50 of 5-FU and doxorubicin (HCT 15 cells [4]) | anchorage-independent growth (HCT 15 cells [4]; HCT 15 cells, increasing amounts (25–200 μM pyrrolidinedithiocarbamate, 0.1–10 mM vitamin E)) | IC50 (HCT 15 cells [4]; read-out: approximate IC50 in soft agar, HCT 15 cells, soft agar, 10 days) [µM] | effect on the IC50 of 5-FU and doxorubicin (HCT 116 cells) | anchorage-independent growth (HCT 116 cells; HCT 116 cells, increasing amounts (25–200 μM pyrrolidinedithiocarbamate, 0.1–10 mM vitamin E)) | IC50 (HCT 116 cells; read-out: approximate IC50 in soft agar, HCT 116 cells, soft agar, 10 days) [µM] | increase of apoptotic index (TUNEL) of residual tumors ([2]; HCT 116 xenograft model) | effect of adding the antioxidant to 5-FU on tumor volume ([2]; HCT 116 xenografts, weekly i.p. injections, combined with 5-FU (40 mg/kg))
O=c1[nH]cc(F)c(=O)[nH]1 [5-FU, 5-fluorouracil] | 1864+190 mm^3 | 15–20% | significantly reduced tumor volume | 70 | 20 | – | – | – | – | – | – | – | – | – | – | – | – | – | –
Cc1c(C)c2c(c(C)c1O)CCC(C)(C(=O)O)O2 (centres unmarked) [6-hydroxy-2.5,7,8-tetramethylchroman-2-carboxylic acid] | – | – | significantly reduced tumor volume | – | – | no significant effect on CRC cell plating efficiency | significantly reduced endogenous H2O2 levels | significantly reduced endogenous H2O2 levels | approximately 5 fold | induced a significant accumulation of cells in the G1 peak | induced a significant accumulation of cells in the G1 peak | decreased the IC50 for both 5-FU and doxorubicin | dose-dependent reduction in anchorage-independent growth | ~3000 | decreased the IC50 for both 5-FU and doxorubicin | dose-dependent reduction in anchorage-independent growth | ~3000 | approximately 5 fold | significantly enhanced the effect of 5-FU
